Test results reported in ChEMBL document CHEMBL5724806, “Unraveling interindividual differences and functional consequences of gut microbial metabolism of immunosuppressants” (2024).

Legend:
Format in all cases: ADME
[1] = The drug is tested on Streptococcus salivarius strain: DSM20560 for biotransformation under anaerobic condition. The drug concentrations were measured over 6 timepoints collected between 0 and 12 hours of incubation by liquid-chromatography-coupled mass spectrometry (LC–MS); design: dose 5 uM, timepoint 0, 1.5, 3, 6, 9, 12 hours; conditions: 5 µM
[2] = The drug is tested on Eubacterium rectale strain: DSM17629 for biotransformation under anaerobic condition. The drug concentrations were measured over 6 timepoints collected between 0 and 12 hours of incubation by liquid-chromatography-coupled mass spectrometry (LC–MS); design: dose 5 uM, timepoint 0, 1.5, 3, 6, 9, 12 hours; conditions: agathobacter rectalis, 5 µM
[3] = (§1) The drug is tested on the gut metagenome community of T-01 with ENA study accession number: PRJEB31790 for biotransformation under microaerobic condition. The drug concentrations were measured over 7 timepoints collected between 0 and 12 hours of incubation by liquid-chromatography-coupled mass spectrometry (LC–MS); design: dose 5 uM, timepoint 0, 0.75, 1.5, 3, 6, 9, 12 hours; conditions: 5 µM
[4] = as §1, with “P-02” for “T-01”; design: dose 5 uM, timepoint 0, 0.75, 1.5, 3, 6, 9, 12 hours; conditions: 5 µM
[5] = The drug is tested on Bifidobacterium longum strain: DSM20088 for biotransformation under anaerobic condition. The drug concentrations were measured over 6 timepoints collected between 0 and 12 hours of incubation by liquid-chromatography-coupled mass spectrometry (LC–MS); design: dose 5 uM, timepoint 0, 1.5, 3, 6, 9, 12 hours; conditions: 5 µM
[6] = as §1, with “A-07” for “T-01”; design: dose 5 uM, timepoint 0, 0.75, 1.5, 3, 6, 9, 12 hours; conditions: 5 µM
[7] = as §1, with “A-08” for “T-01”, “anaerobic” for “microaerobic”; design: dose 5 uM, timepoint 0, 0.75, 1.5, 3, 6, 9, 12 hours; conditions: 5 µM
[8] = as §1, with “T-02” for “T-01”; design: dose 5 uM, timepoint 0, 0.75, 1.5, 3, 6, 9, 12 hours; conditions: 5 µM
[9] = as §1, with “T-05” for “T-01”; design: dose 5 uM, timepoint 0, 0.75, 1.5, 3, 6, 9, 12 hours; conditions: 5 µM
[10] = as §1, with “A-09” for “T-01”; design: dose 5 uM, timepoint 0, 0.75, 1.5, 3, 6, 9, 12 hours; conditions: 5 µM
[11] = as §1, with “T-04” for “T-01”, “anaerobic” for “microaerobic”; design: dose 5 uM, timepoint 0, 0.75, 1.5, 3, 6, 9, 12 hours; conditions: 5 µM
[12] = The drug is tested on Capnocytophaga ochracea strain: DSM7271 for biotransformation under microaerobic condition. The drug concentrations were measured over 6 timepoints collected between 0 and 12 hours of incubation by liquid-chromatography-coupled mass spectrometry (LC–MS); design: dose 5 uM, timepoint 0, 1.5, 3, 6, 9, 12 hours; conditions: 5 µM
[13] = as §1, with “P-04” for “T-01”, “anaerobic” for “microaerobic”; design: dose 5 uM, timepoint 0, 0.75, 1.5, 3, 6, 9, 12 hours; conditions: 5 µM
[14] = as §1, with “P-03” for “T-01”; design: dose 5 uM, timepoint 0, 0.75, 1.5, 3, 6, 9, 12 hours; conditions: 5 µM
[15] = The drug is tested on Streptococcus salivarius strain: DSM20560 for biotransformation under microaerobic condition. The drug concentrations were measured over 6 timepoints collected between 0 and 12 hours of incubation by liquid-chromatography-coupled mass spectrometry (LC–MS); design: dose 5 uM, timepoint 0, 1.5, 3, 6, 9, 12 hours; conditions: 5 µM
[16] = as §1, with “P-01” for “T-01”; design: dose 5 uM, timepoint 0, 0.75, 1.5, 3, 6, 9, 12 hours; conditions: 5 µM
[17] = The drug is tested on Eubacterium eligens strain: DSM3376 for biotransformation under anaerobic condition. The drug concentrations were measured over 6 timepoints collected between 0 and 12 hours of incubation by liquid-chromatography-coupled mass spectrometry (LC–MS); design: dose 5 uM, timepoint 0, 1.5, 3, 6, 9, 12 hours; conditions: lachnospira eligens, 5 µM
[18] = The drug is tested on Gemella haemolysans strain: DSM107751 for biotransformation under microaerobic condition. The drug concentrations were measured over 6 timepoints collected between 0 and 12 hours of incubation by liquid-chromatography-coupled mass spectrometry (LC–MS); design: dose 5 uM, timepoint 0, 1.5, 3, 6, 9, 12 hours; conditions: 5 µM
[19] = The drug is tested on Actinomyces naeslundi strain: DSM43013 for biotransformation under microaerobic condition. The drug concentrations were measured over 6 timepoints collected between 0 and 12 hours of incubation by liquid-chromatography-coupled mass spectrometry (LC–MS); design: dose 5 uM, timepoint 0, 1.5, 3, 6, 9, 12 hours; conditions: actinomyces naeslundii, 5 µM
[20] = as §1, with “T-05” for “T-01”, “anaerobic” for “microaerobic”; design: dose 5 uM, timepoint 0, 0.75, 1.5, 3, 6, 9, 12 hours; conditions: 5 µM
[21] = The drug is tested on Bacteroides stercoris strain: HM 1036 for biotransformation under anaerobic condition. The drug concentrations were measured over 6 timepoints collected between 0 and 12 hours of incubation by liquid-chromatography-coupled mass spectrometry (LC–MS); design: dose 5 uM, timepoint 0, 1.5, 3, 6, 9, 12 hours; conditions: 5 µM
[22] = The drug is tested on Bifidobacterium adolescentis strain: DSM20083 for biotransformation under anaerobic condition. The drug concentrations were measured over 6 timepoints collected between 0 and 12 hours of incubation by liquid-chromatography-coupled mass spectrometry (LC–MS); design: dose 5 uM, timepoint 0, 1.5, 3, 6, 9, 12 hours; conditions: 5 µM
[23] = as §1, with “A-05” for “T-01”; design: dose 5 uM, timepoint 0, 0.75, 1.5, 3, 6, 9, 12 hours; conditions: 5 µM
[24] = The drug is tested on Bacteroides fragilis strain: DSM2151 for biotransformation under anaerobic condition. The drug concentrations were measured over 6 timepoints collected between 0 and 12 hours of incubation by liquid-chromatography-coupled mass spectrometry (LC–MS); design: dose 5 uM, timepoint 0, 1.5, 3, 6, 9, 12 hours; conditions: 5 µM
[25] = as §1, with “A-06” for “T-01”, “anaerobic” for “microaerobic”; design: dose 5 uM, timepoint 0, 0.75, 1.5, 3, 6, 9, 12 hours; conditions: 5 µM
[26] = as §1, with “anaerobic” for “microaerobic”; design: dose 5 uM, timepoint 0, 0.75, 1.5, 3, 6, 9, 12 hours; conditions: 5 µM
[27] = The drug is tested on Ruminococcus gnavus strain: ATCC29149 for biotransformation under anaerobic condition. The drug concentrations were measured over 6 timepoints collected between 0 and 12 hours of incubation by liquid-chromatography-coupled mass spectrometry (LC–MS); design: dose 5 uM, timepoint 0, 1.5, 3, 6, 9, 12 hours; conditions: mediterraneibacter gnavus, 5 µM
[28] = The drug is tested on Prevotella copri strain: DSM18205 for biotransformation under anaerobic condition. The drug concentrations were measured over 6 timepoints collected between 0 and 12 hours of incubation by liquid-chromatography-coupled mass spectrometry (LC–MS); design: dose 5 uM, timepoint 0, 1.5, 3, 6, 9, 12 hours; conditions: segatella copri, 5 µM
[29] = The drug is tested on Lactobacillus paracasei strain: ATCC27092 for biotransformation under microaerobic condition. The drug concentrations were measured over 6 timepoints collected between 0 and 12 hours of incubation by liquid-chromatography-coupled mass spectrometry (LC–MS); design: dose 5 uM, timepoint 0, 1.5, 3, 6, 9, 12 hours; conditions: lacticaseibacillus paracasei, 5 µM
[30] = as §1, with “A-04” for “T-01”; design: dose 5 uM, timepoint 0, 0.75, 1.5, 3, 6, 9, 12 hours; conditions: 5 µM
[31] = as §1, with “T-04” for “T-01”; design: dose 5 uM, timepoint 0, 0.75, 1.5, 3, 6, 9, 12 hours; conditions: 5 µM

Bacterial Biotransformation [1]	Bacterial Biotransformation [2]	Bacterial Biotransformation [3]	Bacterial Biotransformation [4]	Bacterial Biotransformation [5]	Bacterial Biotransformation [6]	Bacterial Biotransformation [7]	Bacterial Biotransformation [8]	Bacterial Biotransformation [9]	Bacterial Biotransformation [10]	Bacterial Biotransformation [11]	Bacterial Biotransformation [12]	Bacterial Biotransformation [13]	Bacterial Biotransformation [14]	Bacterial Biotransformation [15]	Bacterial Biotransformation [16]	Bacterial Biotransformation [17]	Bacterial Biotransformation [19]	Bacterial Biotransformation [20]	SMILES	Bacterial Biotransformation [18]	other results
Compound NOT metabolized	Compound NOT metabolized	Compound NOT metabolized	Compound NOT metabolized	Compound NOT metabolized	Compound NOT metabolized	Compound NOT metabolized	Compound NOT metabolized	Compound NOT metabolized	Compound NOT metabolized	Compound NOT metabolized	Compound NOT metabolized	Compound NOT metabolized	Compound NOT metabolized	Compound NOT metabolized	Compound NOT metabolized	Compound NOT metabolized	Compound NOT metabolized	Compound NOT metabolized	CCOc1nc2cccc(C(=O)O)c2n1Cc1ccc(-c2ccccc2-c2nnn[nH]2)cc1	Compound NOT metabolized	Bacterial Biotransformation [21]: Compound NOT metabolized; Bacterial Biotransformation [22]: Compound NOT metabolized; Bacterial Biotransformation [23]: Compound NOT metabolized; Bacterial Biotransformation [24]: Compound NOT metabolized; Bacterial Biotransformation [25]: Compound NOT metabolized; Bacterial Biotransformation [26]: Compound NOT metabolized; Bacterial Biotransformation [27]: Compound NOT metabolized; Bacterial Biotransformation [28]: Compound NOT metabolized; Bacterial Biotransformation [29]: Compound NOT metabolized; Bacterial Biotransformation [30]: Compound NOT metabolized; Bacterial Biotransformation [31]: Compound NOT metabolized
Compound NOT metabolized	Compound NOT metabolized	Compound NOT metabolized	Compound NOT metabolized	Compound NOT metabolized	Compound NOT metabolized	Compound NOT metabolized	Compound NOT metabolized	Compound NOT metabolized	Compound NOT metabolized	Compound NOT metabolized	Compound NOT metabolized	Compound NOT metabolized	Compound NOT metabolized	Compound metabolized	Compound NOT metabolized	Compound NOT metabolized	Compound NOT metabolized	Compound NOT metabolized	CCOC(=O)[C@H](CCc1ccccc1)N[C@@H](C)C(=O)N1[C@H](C(=O)O)C[C@@H]2CCC[C@@H]21	Compound NOT metabolized	Bacterial Biotransformation [21]: Compound NOT metabolized; Bacterial Biotransformation [22]: Compound NOT metabolized; Bacterial Biotransformation [23]: Compound NOT metabolized; Bacterial Biotransformation [24]: Compound NOT metabolized; Bacterial Biotransformation [25]: Compound NOT metabolized; Bacterial Biotransformation [26]: Compound NOT metabolized; Bacterial Biotransformation [27]: Compound NOT metabolized; Bacterial Biotransformation [28]: Compound NOT metabolized; Bacterial Biotransformation [29]: Compound NOT metabolized; Bacterial Biotransformation [30]: Compound NOT metabolized; Bacterial Biotransformation [31]: Compound NOT metabolized
Compound NOT metabolized	Compound NOT metabolized	Compound metabolized	Compound NOT metabolized	Compound NOT metabolized	Compound NOT metabolized	Compound NOT metabolized	Compound NOT metabolized	Compound NOT metabolized	Compound NOT metabolized	Compound NOT metabolized	Compound NOT metabolized	Compound NOT metabolized	Compound NOT metabolized	Compound NOT metabolized	Compound NOT metabolized	Compound NOT metabolized	Compound NOT metabolized	Compound NOT metabolized	C[C@@H](NCCCc1cccc(C(F)(F)F)c1)c1cccc2ccccc12	Compound NOT metabolized	Bacterial Biotransformation [21]: Compound NOT metabolized; Bacterial Biotransformation [22]: Compound NOT metabolized; Bacterial Biotransformation [23]: Compound NOT metabolized; Bacterial Biotransformation [24]: Compound NOT metabolized; Bacterial Biotransformation [25]: Compound NOT metabolized; Bacterial Biotransformation [26]: Compound metabolized; Bacterial Biotransformation [27]: Compound NOT metabolized; Bacterial Biotransformation [28]: Compound NOT metabolized; Bacterial Biotransformation [29]: Compound NOT metabolized; Bacterial Biotransformation [30]: Compound NOT metabolized; Bacterial Biotransformation [31]: Compound NOT metabolized
